The test system of data set [1] is B16-F10 mouse melanocytes. The data set is described as follows: In vitro cytotoxicity assay (XTT), B16-F10. The settings on record: B16-F10 cells. As for the experimental part: (§1) The mouse melanocytes (B16-F10) cells were cultured in a complete Minimum Essential Eagle’s Medium (MEM) whereas the human U937 cells were cultured in Roswell Park Memorial Institute (RPMI) containing 10% fetal bovine serum (FBS) and 1% gentamycin. B16-F10 (10^5 cells per well) and U937 (10^6 cells per well) were seeded into a 96-well plate. After an overnight incubation at 37°C in 5% CO2 and a humidified atmosphere, the extract, compounds and the positive control (actinomycin D) were added to the cells. […] The highest concentration of positive control (0.05 μg/ml) was serially diluted to eight consecutive wells. The plate was then incubated at 37°C in 5% CO2, and a humidified atmosphere after which the toxic effects of the extracts were assayed using the XTT (sodium 3’-[1-(phenyl amino-carbonyl)-3,4-tetrazolium]-bis-[4-methoxy-6-nitrobenzene sulfonic acid hydrate) cytotoxicity assay. […] The optical densities of the wells were measured at 450 nm (690 nm reference wavelength) using BIOTEK Power-wave XS multi well reader (A.D.P., Weltevreden Park, South Africa). By referring to the control (medium with DMSO), the cell survival rate was assessed.
(Tetrazolium assays rely on reduction of a dye to a coloured formazan, in cell work by metabolically active cells.)

Data set [2] can be described thus: In vitro cytotoxicity assay (XTT), B16-F10. To be noted: mouse, B16-F10 mouse melanocyte cells. As for the experimental part: as §1
The test system of another data set is IL 8. The data set is described as follows: IL 8 release from U937 cells stimulated with heat-killed P. acnes (ELISA). Format: cell-based, human. To be noted: for Inhibitory ratio (%) IL 8: 18 h. As for the experimental part:
(§2) Briefly, the log phase culture of P. acnes was harvested, washed three times with phosphate buffer saline (PBS), and incubated at 80°C for 30 min to kill the bacteria. The heat-killed bacteria were stored at 4°C until use. […] Pentoxifylline was used as a control. […] Cytokine standards were serially diluted to facilitate the construction of calibration curves necessary for determining protein concentration after treatment with test samples. The ratio (%) of inhibition of the cytokine release was calculated using the following equation: […] Where T represents the concentration of the cytokine in the culture supernatant with the test sample, and C represents the concentration of cytokine in the culture supernatant with the solvent.
(In general: In an ELISA, binding on a coated surface is turned into a signal by an enzyme label.)

Data set [3] in a line: In vitro cytotoxicity assay (XTT), U937. The settings on record: human, U937 human macrophage cells. As for the experimental part: as §1
Another data set deals with U937 human macrophage. As to the kind of experiment: In vitro cytotoxicity assay (XTT), U937. The settings on record: U937 cells. As for the experimental part: as §1
Another data set in a line: DPPH antioxidant assay. Format: biochemical. As for the experimental part:
Antioxidant activity of the ethanol extract of S. jambos and compounds was investigated using 1,2-diphenyl-1-picrylhydrazyl (DPPH) antioxidant assay. Following the procedures as described by DuToit et al. for each sample, a dilution series (8 dilutions) was prepared in a 96 well plate by adding distilled water as a dilution medium. Final concentration of the samples ranged from 100 to 0.7 μg/ml. Each concentration was tested in triplicate. Vitamin C was used as a positive control. […] The radical scavenging activity was measured in terms of the amount of antioxidants necessary to decrease the initial DPPH absorbance by 50% (IC50). The IC50 value of each sample was determined graphically by plotting the absorbance of DPPH as a function of the sample concentration in μg/ml. The IC50 is the amount of antioxidant necessary to decrease the initial DPPH absorbance by 50%. The results are expressed as the mg vitamin C equivalents/g dry weight and calculated as follows: […]
(The DPPH test is a chemical assay of radical scavenging.)

The next data set has as its system TNF α. The data set is described as follows: TNF α release from U937 cells stimulated with heat-killed P. acnes (ELISA). Format: cell-based, human. The settings on record: for Inhibitory ratio (%) TNF α: 18 h. As for the experimental part:
as §2

In data set [4] the test system is Propionibacterium acnes (ATCC 11827). The data set is described as follows: Antibacterial activity, broth microdilution MIC (INT colour change). Format: cell-based. The settings on record: P. acnes, 72 h anaerobic, 37°C. As for the experimental part:
The ethanol extract and compounds were tested against P. acnes by determining the minimum inhibitory concentration (MIC) values obtained by a microdilution method as previously described with few modifications. Briefly, the bacteria was cultured from a Kwik-Stick on nutrient agar and incubated at 37°C for 72 h under anaerobic conditions before the assay. The 72 h culture of the bacteria was dissolved in nutrient broth and the suspension was adjusted to 0.5 McFarland standard turbidity. […] In a sterile 96-well plate, 100 μl of samples from the stock solution consisting of the plant extract/isolated compounds (2 mg/ml in 10% dimethyl sulphoxide (DMSO)) and the positive control tetracycline (0.2 mg/ml) were diluted with broth. Twofold serial dilutions were made in broth over a range to give concentrations of 500–3.9 μg/ml and 50–0.3 and μg/ml for the plant extract/ isolated compounds and positive control tetracycline, respectively. The bacterial suspension (100 μl) was then added to the wells. The wells with 2.5% DMSO and bacterial suspension without samples served as the solvent and negative controls, respectively. The plates were incubated at 37°C for 72 h in an anaerobic environment.

Where [5] appears, read: at the highest concentration tested.

Several values for one entry are separate records, joined by “and”; a condition that tells them apart may be missing. Equal entries are not always repeated.

Consider `O=c1c(O)c(-c2cc(O)c(O)c(O)c2)oc2cc(O)cc(O)c12` [Myricetin, myricetin], for which the results for the Toxicity in words result (in data set [1]; in the data set with U937 human macrophage) were “significant toxicity” and “moderate toxicity”, respectively. Also, the EC50 is 11.1 µg/mL and 35.1 µM in data set [2]; 19.3 µg/mL and 60 µM in data set [3]. Moreover, in the data set on IL 8 (setting [5]), the “Inhibition of IL 8 in words” value is recorded as “low inhibition”. For the same compound, the entries for the “Inhibitory ratio (%) IL 8” value in the data set on IL 8 (final concentration 3.1 μg/ml), in the data set with IL 8 (final concentration 6.2 μg/ml) and in the data set with IL 8 (final concentration 12.5 μg/ml) were -0.5%, 10% and 34%, respectively. The “Antioxidant IC50” value in the data set “DPPH antioxidant assay” (DPPH, 550 nm) was 0.9 µg/mL. For the same compound, in the data set “DPPH antioxidant assay” (DPPH, value in brackets), the half-inhibitory concentration (IC50) is 3000 nM. Further, the “Antioxidant Mg Vit C equivalents/g dry weight” value in “DPPH antioxidant assay” (IC50 vit C/IC50 sample × 1000) was 2105.0 Mg Vit C equivalents/g dry weight. Further, the “Inhibition of TNF α in words” value in the data set with TNF α (setting [5]) was “moderately decreased”. The results for the “Inhibitory ratio (%) TNF α” value with TNF α (final concentration 3.1 μg/ml), in the data set with TNF α (final concentration 6.2 μg/ml) and in the data set with TNF α (final concentration 12.5 μg/ml) were -4.8%, 27.1% and 44.1%, respectively. This compound gave an MIC in data set [4] (Cutibacterium acnes, ATCC11827, 72 h) above 500 µg/mL. Besides, the “Antibacterial MIC” value in data set [4] is on record as “Na (not active at the highest concentration tested (500 μg/ml))”.

The EC50 is the concentration needed to bring the measured effect to its halfway point. The IC50 is the concentration that gives 50% inhibition. Read a low IC50 as inhibition by little substance. Broadly, the MIC is the lowest concentration that inhibits growth of the organism.

The values are drawn from PMC4228444 (BMC Complementary and Alternative Medicine, 2013).
